Like-named read-outs stand apart in the source and are kept apart here. Peptide text beside a SMILES is read from it.
Test system: erythrocytes infected with 3D7 trophozoites
Type: cell-based, Plasmodium falciparum

SMILES	Ratio of metabolite abundance, Exp1_1hr (sheet Ratio, Exp1, 1hr)	Ratio of metabolite abundance, Exp1_3hr (sheet Ratio, Exp1, 3hr)	Ratio of metabolite abundance, Exp1_6hr (sheet Ratio, Exp1, 6hr)	Ratio of metabolite abundance, Exp2_1hr (sheet Ratio, Exp2, 1hr)	Ratio of metabolite abundance, Exp2_3hr (sheet Ratio, Exp2, 3hr)	Ratio of metabolite abundance, Exp2_6hr (sheet Ratio, Exp2, 6hr)	Ratio of metabolite abundance, Exp3_1hr (sheet Ratio, Exp3, 1hr)	Ratio of metabolite abundance, Exp3_3hr (sheet Ratio, Exp3, 3hr)	Ratio of metabolite abundance, Exp3_6hr (sheet Ratio, Exp3, 6hr)	further results
O=C(O)[C@H](Cc1ccccc1)NC(=O)[C@H](Cc1cnc[nH]1)NC(=O)[C@@H]1CCCN1 [PHF] (H-Pro-His-Phe-OH)	1.822	0.7039	1.872	2.081	1.353	2.7014	2.437	1.168	1.525	
CC(C)[C@H](NC(=O)[C@@H]1CCCN1C(=O)[C@@H]1CCCN1)C(=O)N[C@@H](CCC(N)=O)C(=O)O [PPVQ] (H-PPVQ-OH)	1.0595	0.6401	0.763	1.014	0.8051	0.8204	0.973	0.9388	0.9472	
CC(C)[C@H](NC(=O)[C@@H]1CCCN1)C(=O)N[C@@H](CC(N)=O)C(=O)N[C@@H](Cc1ccccc1)C(=O)O [PVNF] (H-PVNF-OH)	0.6556	0.3908	1.343	0.8248	0.5795	1.295	0.9151	0.7449	2.085	
CC(C)[C@H](NC(=O)[C@@H]1CCCN1)C(=O)N[C@@H](CCC(N)=O)C(=O)N[C@@H](C)C(=O)O [PVQA] (H-PVQA-OH)	0.5661	0.3168	0.8691	0.7152	0.5356	0.8856	0.5318	0.3152	1.03	
CC(C)[C@H](NC(=O)[C@@H]1CCCN1)C(=O)N[C@@H](CCC(N)=O)C(=O)O [PVQ] (H-Pro-Val-Gln-OH)	1.621	0.8912	2.731	1.963	1.4303	3.535	1.9381	1.515	2.354	
O=C(O)C1CCCCN1 (stereo not drawn) [Pipecolate]	1.3778	1.045	1.52	1.38	1.052	2.481	1.352	1.13	2.281	
O=C[C@H](O)[C@H](O)[C@H](O)COP(=O)(O)O [Ribose-5-phosphate]	2.775	3.2124	2.288	1.429	1.2203	1.178	1.678	1.594	1.155	
Nc1ncnc2c1ncn2[C@@H]1O[C@H](CSCC[C@H](N)C(=O)O)[C@@H](O)[C@H]1O [S-Adenosyl-L-homocysteine]	0.9683	0.7021	0.8395	0.9429	0.8753	1.175	0.839	0.8468	0.8042	
CC(C)C[C@H](NC(=O)CNC(=O)[C@H](CC(=O)O)NC(=O)[C@@H](N)CO)C(=O)N[C@@H](C)C(=O)O [SDGLA] (H-SDGLA-OH)	0.8703	0.6348	0.4701	0.9687	0.9448	0.8041	0.872	0.7497	0.5099	
N[C@@H](CO)C(=O)N[C@@H](Cc1ccccc1)C(=O)NCC(=O)N[C@@H](CC(=O)O)C(=O)O [SFGD] (H-SFGD-OH)	0.9984	0.657	0.8343	0.9574	0.8881	0.8874	0.972	0.9269	0.9926	
O=C(COP(=O)(O)O)[C@@H](O)[C@H](O)[C@H](O)[C@H](O)COP(=O)(O)O [Sedoheptoluse bisphosphate]	2.263	0.7031	0.6514	1.522	1.277	0.7611	1.031	0.8186	0.6336	
O=CCCC(=O)O [Succinate semialdehyde]	0.6229	0.6245	0.614	0.9462	0.5836	0.7757	0.7696	0.6244	0.8444	
O=C(O)CCC(=O)O [Succinate]										Log2 Exp1_1hr: 0.7494; Log2 Exp1_3hr: -0.1278; Log2 Exp1_6hr: -0.06195; Log2 Exp2_1hr: 0.5818; Log2 Exp2_3hr: -0.0254; Log2 Exp2_6hr: 0.5995; Log2 Exp3_1hr: 0.1613; Log2 Exp3_3hr: -0.5854; Log2 Exp3_6hr: 0.007182; Ratio of metabolite abundance, Exp1_1hr: 1.681; Ratio of metabolite abundance, Exp1_3hr: 0.9152; Ratio of metabolite abundance, Exp1_6hr: 0.958; Ratio of metabolite abundance, Exp2_1hr: 1.497; Ratio of metabolite abundance, Exp2_3hr: 0.9825; Ratio of metabolite abundance, Exp2_6hr: 1.515; Ratio of metabolite abundance, Exp3_1hr: 1.118; Ratio of metabolite abundance, Exp3_3hr: 0.6665; Ratio of metabolite abundance, Exp3_6hr: 1.005
CC(C)[C@H](NC(=O)[C@H](CC(N)=O)NC(=O)[C@@H](N)[C@@H](C)O)C(=O)N[C@@H](CCCCN)C(=O)O [TNVK] (H-TNVK-OH)	0.4459	0.2171	0.7349	0.5855	0.3584	0.8812	0.5059	0.3409	1.2	
CC(=O)N[C@H]1[C@@H](OP(=O)(O)OP(=O)(O)OC[C@H]2O[C@@H](n3ccc(=O)[nH]c3=O)[C@H](O)[C@@H]2O)O[C@H](CO)[C@@H](O)[C@@H]1O [UDP-N-acetyl-D-glucosamine]	1.076	0.9078	0.813	0.9909	1.08	0.8625	1.118	1.138	0.9727	
O=c1ccn([C@@H]2O[C@H](COP(=O)(O)OP(=O)(O)O)[C@@H](O)[C@H]2O)c(=O)[nH]1 [UDP]	0.7834	0.4305	0.5124	1.213	0.7051	0.7343	0.7602	0.7434	0.9366	
O=c1ccn([C@@H]2O[C@H](COP(=O)(O)O)[C@@H](O)[C@H]2O)c(=O)[nH]1 [UMP]	0.9634	0.9303	0.812	0.4945	0.6514	1.0366	0.9925	0.9562	0.9948	
CC(C)[C@H](N)C(=O)N[C@@H](CC(=O)O)C(=O)O [VD]	1.809	1.252	2.887	2.091	1.368	1.996	11.5926	5.435	7.8446	
Nc1ncnc2c1ncn2[C@H]1C[C@H](O)[C@@H](COP(=O)(O)OP(=O)(O)O)O1 [dADP]	0.4339	0.1672	0.2747	1.0009	0.9609	1.167	1.173	0.5208	1.268	
